Results published in ChEMBL document CHEMBL1123871, “Methotrexate analogues. 30. Dihydrofolate reductase inhibition and in vitro tumor cell growth inhibition by N epsilon-(haloacetyl)-L-lysine and N delta-(haloacetyl)-L-ornithine analogues and an acivicin analogue of methotrexate” (J Med Chem, 1987).
pIC50: −log10 of the molar value.

Tests used:
L1210 [1] = test: Inhibition of L1210 cultured murine leukemia cell growth; type: functional, cell-based; settings: Mus musculus
Dihydrofolate reductase = molecular target: T1, Dihydrofolate reductase (Mus musculus, UniProt P00375)
T1 sequence (P00375 whole entry): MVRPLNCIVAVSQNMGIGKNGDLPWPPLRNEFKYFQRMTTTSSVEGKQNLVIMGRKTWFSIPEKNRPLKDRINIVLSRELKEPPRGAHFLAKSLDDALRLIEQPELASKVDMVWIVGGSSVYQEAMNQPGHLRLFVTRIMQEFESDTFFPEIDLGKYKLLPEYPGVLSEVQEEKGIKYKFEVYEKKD
Description: Inhibition of dihydrofolate reductase(DHFR) from L1210/R81 cells

[2] = Fold resistance calculated by dividing the IC50(L1210/R81) by the IC50(L1210)
L1210 [3] = test: Inhibition of L1210/R81 murine leukemia cell growth; type: functional, cell-based; settings: Mus musculus

SMILES	pIC50 (L1210 [1])	pIC50 (Dihydrofolate reductase)	Resistance [2]	pIC50 (L1210 [3])
CN(Cc1cnc2nc(N)nc(N)c2n1)c1ccc(C(=O)NC(CCCCNC(=O)CCl)C(=O)O)cc1 (stereo not drawn)	7.48	7.49	2800	7.03
CN(Cc1cnc2nc(N)nc(N)c2n1)c1ccc(C(=O)N[C@@H](CCC(=O)O)C(=O)O)cc1 [METHOTREXATE]	8.30	–	44000	–
CN(Cc1cnc2nc(N)nc(N)c2n1)c1ccc(C(=O)NC(CCCNC(=O)CCl)C(=O)O)cc1 (stereo not drawn)	7.21	7.49	1700	6.98

Results, then the compound that gave them:

pIC50 (L1210 [1])	pIC50 (Dihydrofolate reductase)	Resistance [2]	pIC50 (L1210 [3])	SMILES
6.90	7.34	1200	6.81	CN(Cc1cnc2nc(N)nc(N)c2n1)c1ccc(C(=O)NC(CCCNC(=O)CBr)C(=O)O)cc1 (stereo not drawn)
7.02	7.14	2500	6.62	CN(Cc1cnc2nc(N)nc(N)c2n1)c1ccc(C(=O)NC(CCCCNC(=O)CBr)C(=O)O)cc1 (stereo not drawn)
